Where two headings read alike, the source gives them in different places. Marks after values point to notes of the source that are not given here.
Tests used:
[1] = pKa and log P of the sodium salt; assay type: physicochemical
[2] = Solubility vs. pH; assay type: physicochemical; details: 0.15 M aqueous sodium chloride, saline or isotonic, thermodynamic from solid, 0.15M sodium chloride (aqueous), read-out: Solubility, Concentration
Method: Suspensions were made up in 0.15M sodium chloride (aqueous) and the pH adjusted to the appropriate value with either diluted hydrochloric acid or sodium hydroxide, to ensure that different salt forms with different solubilities are not produced in solution. The suspension was then allowed to equilibrate for 2 h, and the pH was checked and re-adjusted if required.
The pH of the resultant solution was measured, and the solubility was calculated by HPLC-UV assay of the compound concentration in solution.

[3] = Liquid formulations (oral solutions/suspensions); assay type: physicochemical
Method: Values of pH reported were estimated based on pH indicating strips. […] Accordingly, provided in certain embodiments herein were formulations having a pH above about 9, above about 10 or of about 10. In certain embodiments, the formulation was buffered at a pH of about 10. All formulations prepared were sonicated for about 10 minutes.

[4] = test system: production of LTB4 after ionophore stimulation in washed human leukocytes; test: LTB4 inhibition in washed human leukocytes; assay type: cell-based; details: Leukocyte, mean of 4 tests
[5] = test system: LTB4 in Human Whole Blood; test: Human blood LTB4 inhibition assay; assay type: cell-based; details: mean of 8 tests
Method: A non-limiting example of such a human blood LTB4 inhibition assay is as follows: Blood was drawn from consenting, human volunteers into heparinized tubes and 125 μL aliquots added to wells containing 2.5 μL 50% dimethylsulfoxide (vehicle) or 2.5 μL drug in 50% dimethylsulfoxide. Samples were incubated for 15 minutes at 37° C. 2 μL calcium ionophore […] (from a 50 mM dimethylsulfoxide stock diluted just prior to the assay in Flanks balanced salt solution (Invitrogen)) to 1.25 mM) was added, solutions mixed and incubated for 30 minutes at 37° C. Samples were centrifuged at 1,000 rpm (−200×g) for 10 minutes at 4° C., plasma removed and a 1:100 dilution assayed for LTB4 concentration using ELISA (Assay Designs). Drug concentrations to achieve 50% inhibition (IC50's) of vehicle LTB4 were determined by nonlinear regression (Graphpad Prism) of % inhibition versus log drug is concentration.

[6] = Single dose kinetics in beagle dogs; assay type: in vivo; details: female, dog, plasma, Fasted
[7] = test system: whole blood ionophore-stimulated leukotriene LTB4; test: Phase I study, whole blood ionophore-stimulated LTB4; assay type: in vivo, human; details: for Emax / EC50 / EC90: Homo sapiens; for Emax: read-out: Emax (%), maximum inhibition of LTB4; for EC50: read-out: EC50 (ng/mL), concentration at which 50% inhibition was reached; for LTB4 level at t = 24 hrs. (% of baseline): oral solution
Excerpt: Study Design: Single center, double-blind, randomized, placebo-controlled, single ascending dose followed by multiple ascending dose study.
Sample Size: (1) Single Dose Phase: eight (8) subjects (6 active, 2 placebo) per dose level; up to 5 dose levels are planned (a total of 40 subjects if all 5 dose levels are completed); and (2) Multiple Dose Phase: eight (8) subjects (6 active, 2 placebo) per dose level; up to 4 dose levels are planned (a total of 32 subjects if all 4 dose levels are completed).
Formulations: Compound 2 was supplied as an oral powder for reconstitution. Placebo solution matched. […] The placebo differed only in the absence of the active.
The following dosing cohorts were used:
Routes of Administration: All doses were administered orally with approximately 100 mL of water rinse. Subjects were fasted for at least 8 hours prior to dosing and for 2 hours after dosing. For BID dosing in the Multiple Dose Phase, when applicable, subjects were fasted for at least 2 hours prior to the second daily dose.
Plasma concentrations of Compound 1 were determined using a validated LC/MS method. Whole blood ionophore-stimulated leukotriene LTB4 and urinary LTE4 production were assayed by ELISA and mass spectrometry, respectively.
Analysis of Samples: Concentrations of Compound 1 was determined in plasma samples collected from subjects. Similarly, concentrations of LTB4 in plasma and urinary LTE4 were determined in blood and urine samples collected.

[8] = mouse, in vivo, po, 250 mg/kg/day
[9] = test system: CYP3A4; test: Cellular Cytochrome P450 induction, CYP3A4; details: tested at 10 μM, cryopreserved human hepatocytes
[10] = IV, 4:1 PEG400:Water, 0.67 mg/kg
[11] = Multiple dose part, Day 1, 10 mg
[12] = Multiple dose part, Day 1, 50 mg
[13] = Multiple dose part, Day 1, 150 mg
[14] = Multiple dose part, Day 1, 450 mg
[15] = Multiple dose part, Day 11, 10 mg
[16] = Multiple dose part, Day 11, 50 mg
[17] = Multiple dose part, Day 11, 150 mg
[18] = Multiple dose part, Day 11, 450 mg
[19] = Single dose part, Day 1, 600 mg
[20] = Single dose part, Day 1, 1000 mg

- pKa [1]: 3.45
- solubility at 2 h ([2]; pH 1.1): 0.026 mg/mL
- solubility at 2 h ([2]; pH 3.8): < 0.0001 mg/mL
- solubility at 2 h ([2]; pH 6.9): 0.0007 mg/mL
- solubility at 2 h ([2]; pH 9.0): 3.5 mg/mL
- solubility at 2 h ([2]; pH 9.8): > 10 mg/mL
- solubility at 2 h ([2]; pH 11.2): > 10 mg/mL
- Results (liquid formulation) ([3]; 0.010M sodium carbonate buffer, 1% v/v Lutrol and 0.05% splenda, pH 10, ~10 mg/mL): Clear solution
- Results (liquid formulation) ([3]; 0.010M sodium carbonate buffer, 2% v/v ethanol and 0.05% splenda, pH 10, 10 mg/mL): Clear solution
- Results (liquid formulation) ([3]; 0.010M sodium carbonate buffer, 5% v/v Ethanol and 0.05% splenda, pH 10, ~10 mg/mL): Some undissolved
- Results (liquid formulation) ([3]; 0.010M sodium carbonate buffer, 5% v/v Simple syrup, pH 10, 10 mg/mL): Some undissolved
- Results (liquid formulation) ([3]; 0.010M sodium carbonate buffer, pH 10, 10 mg/mL): Clear solution
- Results (liquid formulation) ([3]; Vehicle 0.5% Methylcellulose, 3.33 mg/mL): Suspension
- IC50 [4]: 0.00044 µM
- IC90 [5]: 1.31 µM
- AUC(0-inf) [6, 10]: 17.6 µg·h/mL
- Cmax [6, 10]: 12 µg/mL
- Tmax [6, 10]: 1.02 min
- bioavailability [6, 10]: 100%
- clearance ([6]; IV, 4:1 PEG400:Water, 0.67 mg/kg, read-out: CLp): 0.036 L/h/kg
- Vd ([6]; IV, 4:1 PEG400:Water, 0.67 mg/kg, read-out: VdSS): 0.2 L/kg
- Cmax ([6]; Oral, 0.5% Methylcellulose, 5 mg/kg): 12.4 µg/mL
- EC50 ([7]; 24 h, Multiple dose part, Day 1, Multiple dose total): 51 ng/mL
- EC50 ([7]; 24 h, Single dose part, Day 1, Single dose total): 90 ng/mL
- EC90 ([7]; 24 h, read-out: EC90 (ng/mL), concentration at which 90% inhibition was reached, Multiple dose part, Day 1, Multiple dose total): 296 ng/mL
- EC90 ([7]; 24 h, read-out: EC90 (ng/mL), concentration at which 90% inhibition was reached, Single dose part, Day 1, Single dose total): 342 ng/mL
- EC50 ([7]; 264 h, Multiple dose part, Day 11, Multiple dose total): 52 ng/mL
- EC90 ([7]; 264 h, read-out: EC90 (ng/mL), concentration at which 90% inhibition was reached, Multiple dose part, Day 11, Multiple dose total): 308 ng/mL
- induction of CYP3A4 [9]: No apparent induction
SMILES: CCOc1ccc(-c2ccc(Cn3c(CC(C)(C)C(=O)[O-])c(SC(C)(C)C)c4cc(OCc5ccc(C)cn5)ccc43)cc2)cn1.[Na+] [Compound 2, sodium 3-[3-(tert-butylsulfanyl)-1-[4-(6-ethoxy-pyridin-3-yl)benzyl]-5-(5-methyl-pyridin-2-yl-methoxy)-1H-indol-2-yl]-2,2-dimethylpropionate]
- Emax ([7]; 24 h, Multiple dose part, Day 1, 10 mg): 60.8%
- Emax ([7]; 24 h, Multiple dose part, Day 1, 50 mg): 89.6%
- Emax ([7]; 24 h, Multiple dose part, Day 1, 150 mg): 98.5%
- Emax ([7]; 24 h, Multiple dose part, Day 1, 450 mg): 97.6%
- Emax ([7]; 24 h, Single dose part, Day 1, 50 mg): 87.9%
- Emax ([7]; 24 h, Single dose part, Day 1, 150 mg): 98.8%
- Emax ([7]; 24 h, Single dose part, Day 1, 300 mg): 102%
- Emax ([7]; 24 h, Single dose part, Day 1, 600 mg): 100%
- Emax ([7]; 24 h, Single dose part, Day 1, 1000 mg): 99.6%
- Emax ([7]; 264 h, Multiple dose part, Day 11, 10 mg): 74.4%
- Emax ([7]; 264 h, Multiple dose part, Day 11, 50 mg): 97.9%
- Emax ([7]; 264 h, Multiple dose part, Day 11, 150 mg): 99.7%
- Emax ([7]; 264 h, Multiple dose part, Day 11, 450 mg): 101%
- Tmax (h), time to reach Emax [7, 11]: 12.00 h
- tE>90% (h), time above 90% LTB4 inhibition [7, 11]: 0.0 h
- Tmax (h), time to reach Emax [7, 12]: 4.00 h
- tE>50% (h), time above 50% LTB4 inhibition [7, 12]: >23.3 h
- tE>90% (h), time above 90% LTB4 inhibition [7, 12]: 0.0 h
- Tmax (h), time to reach Emax [7, 13]: 3.00 h
- tE>50% (h), time above 50% LTB4 inhibition [7, 13]: >23.4 h
- Tmax (h), time to reach Emax [7, 14]: 3.00 h
- tE>50% (h), time above 50% LTB4 inhibition [7, 14]: >23.7 h
- Tmax (h), time to reach Emax [7, 15]: 12.00 h
- tE>90% (h), time above 90% LTB4 inhibition [7, 15]: 0.0 h
- Tmax (h), time to reach Emax [7, 16]: 4.00 h
- tE>90% (h), time above 90% LTB4 inhibition [7, 16]: 10.0 h
- Tmax (h), time to reach Emax [7, 17]: 2.00 h
- tE>50% (h), time above 50% LTB4 inhibition [7, 17]: >72.0 h
- Tmax (h), time to reach Emax [7, 18]: 2.00 h
- tE>50% (h), time above 50% LTB4 inhibition [7, 18]: >72.0 h
- Tmax (h), time to reach Emax ([7]; Single dose part, Day 1, 50 mg): 8.00 h
- tE>90% (h), time above 90% LTB4 inhibition ([7]; Single dose part, Day 1, 50 mg): 0.0 h
- Tmax (h), time to reach Emax ([7]; Single dose part, Day 1, 150 mg): 6.00 h
- Tmax (h), time to reach Emax ([7]; Single dose part, Day 1, 300 mg): 8.00 h
- tE>50% (h), time above 50% LTB4 inhibition ([7]; Single dose part, Day 1, 300 mg, estimated): ~30^# h
- Tmax (h), time to reach Emax [7, 19]: 6.00 h
- tE>50% (h), time above 50% LTB4 inhibition [7, 19]: >71.7 h
- Tmax (h), time to reach Emax [7, 20]: 6.00 h
- tE>50% (h), time above 50% LTB4 inhibition [7, 20]: >71.7 h
- LTB4 level at t = 24 hrs. (% of baseline) ([7]; single dose 50 mg): 37 ± 4.7 % of baseline
- LTB4 level at t = 24 hrs. (% of baseline) ([7]; single dose 150 mg): 24 ± 4.4 % of baseline
- LTB4 level at t = 24 hrs. (% of baseline) ([7]; single dose 300 mg): 23 ± 8.3 % of baseline
- LTB4 level at t = 24 hrs. (% of baseline) ([7]; single dose 600 mg): 1.6 ± 0.98 % of baseline
- LTB4 level at t = 24 hrs. (% of baseline) ([7]; single dose 1000 mg): 1.9 ± 0.41 % of baseline
- necropsy, gross abnormalities [8]: no gross abnormalities

— patent US20110160249A1, “5-LIPOXYGENASE-ACTIVATING PROTEIN INHIBITOR” (priority 2008, published 2011)
